Measured values from US6303630A, “Diarylsulfone non-nucleoside reverse transcriptase inhibitors of human immunodeficiency virus” (University of the Sciences in Philadelphia, priority 2000, dated 2001).
Like-named read-outs stand apart in the source and are kept apart here.

How the values were obtained:
HIV-1 = assay: NCI in vitro anti-HIV drug screen: XTT-formazan assay, protection of T4 lymphocytes (CEM) from HIV-1 cytopathic effects; format: cell-based, human immunodeficiency virus (HIV-1); conditions: for EC50: 144 h, HIV-1 infected CEM cells, 6 days, XTT, approximate values, read-out: EC50 (50% effective concentration against HIV cytopathic effects); for inhibition at 200 µM / activity at 200 µM: dose 2.00 × 10^-4 Molar; for inhibition at 2 µM / activity at 2 µM: dose 2.00 × 10^-6 Molar; for inhibition at 0.2 µM / activity at 0.2 µM: dose 2.00 × 10^-7 Molar; for TI50 (IC/EC), Therapeutic Index: IC50/EC50
Experimental: Compounds of the present invention were evaluated for anti-HIV efficacy by the National Cancer Institute's (NCI) In Vitro Anti AIDS Drug Discovery Program.
(§1) The NCI procedure is fully described, for example, in a bulletin provided by the National Institutes of Health, National Cancer Institute, Bethesda, Md. 20892, all of which is incorporated herein by reference. As related in the NCI bulletin, the procedure is based on O. W. Weislow et al., "New soluble-formazan assay for HIV-1 cytopathic effects: application to high flux screening of synthetic and natural products for AIDS-antiviral activity", J. Natl. Cancer Inst. 81:577-586 (1989), and is used to test for compounds active against human immunodeficiency virus (HIV), and is designed to detect compounds active at any stage of the virus reproductive cycle. As further related in the NCI bulletin, the assay includes killing of T4 lymphocytes by HIV. Amounts of HIV are added to cells, with a minimum of two cycles of virus reproduction found to be necessary to obtain the required cell killing. Compounds that interact with virions, cells, or virus gene-products to interfere with viral activities will protect cells from cytolysis. All were compared with a positive (e.g., AZT-treated) control evaluation at the same time under identical conditions. The procedure is set forth as follows:
(§2) A candidate compound is first dissolved in a suitable solvent, preferably dimethyl sulfoxide, then diluted 1:100 in cell culture medium before preparing serial half-log10 dilutions. T4 lymphocytes (CEM cell line) are then added and after a brief interval HIV-1 is added, resulting in a 1:200 final dilution of the compound. Uninfected cells with the compound serve as a toxicity control, and infected and uninfected without the compound serve as basic controls. Cultures are then incubated at 37° in a 5% carbon dioxide atmosphere for 6 days. The tetrazolium salt, XTT, is added to all wells, and cultures are incubated to allow formazan color development by viable cells. Individual wells are analyzed spectrophotometrically to quantitate formazan product, and in addition are viewed microscopically for detection of viable cells and confirmation of protective activity. Drug-treated virus-infected cells are compared with drug-treated noninfected cells and with other appropriate controls (untreated infected and untreated noninfected cells, drug-containing wells without cells, etc.) on the same plate. Data are reviewed in comparison with other tests performed at the same time and a determination as to activity is made.

[1] = system: T4 lymphocytes (CEM cell line); assay: Cell growth / toxicity control in uninfected T4 lymphocytes (CEM), XTT-formazan; format: cell-based; conditions: Homo sapiens, CCRF-CEM; for IC50: 144 h, approximate values; for activity at 200 µM: dose 2.00 × 10^-4 Molar; for activity at 20 µM: dose 2.00 × 10^-5 Molar; for activity at 2 µM: dose 2.00 × 10^-6 Molar; for activity at 0.2 µM: dose 2.00 × 10^-7 Molar; for activity at 63.2 µM: dose 6.32 × 10^-5 Molar; for activity at 6.33 µM: dose 6.33 × 10^-6 Molar; for activity at 0.634 µM: dose 6.34 × 10^-7 Molar; for activity at 0.0635 µM: dose 6.35 × 10^-8 Molar
From the text: as §1, §2

[2] = Human immunodeficiency virus 1, CCRF-CEM
[3] = Human immunodeficiency virus 1, CCRF-CEM, read-out: Percent of Protection
[4] = Human immunodeficiency virus 1, CCRF-CEM, dose 6.34 × 10^-7 Molar, read-out: Percent of Protection
[5] = Human immunodeficiency virus 1, CCRF-CEM, read-out: Percent of Protection, dose 2.00 × 10^-5 Molar
[6] = Human immunodeficiency virus 1, CCRF-CEM, read-out: Percent of Protection, dose 6.33 × 10^-6 Molar
[7] = Human immunodeficiency virus 1, CCRF-CEM, read-out: Percent of Protection, dose 6.35 × 10^-8 Molar
[8] = Human immunodeficiency virus 1, Lymphocyte, read-out: Percent of Control, Infected
[9] = Human immunodeficiency virus 1, Lymphocyte, dose 6.34 × 10^-7 Molar, read-out: Percent of Control, Infected
[10] = Human immunodeficiency virus 1, Lymphocyte, dose 6.35 × 10^-8 Molar, read-out: Percent of Control, Infected
[11] = read-out: IC50 (50% inhibitory concentration for cell growth), uninfected CEM cells, 6 days, XTT
[12] = read-out: Percent of Control, Uninfected
[13] = Human immunodeficiency virus 1, CCRF-CEM, dose 2.00 × 10^-5 Molar, read-out: Percent of Protection
[14] = Human immunodeficiency virus 1, Lymphocyte, dose 2.00 × 10^-5 Molar, read-out: Percent of Control, Infected
[15] = Human immunodeficiency virus 1, Lymphocyte, dose 6.33 × 10^-6 Molar, read-out: Percent of Control, Infected
[16] = uninfected CEM cells, 6 days, XTT, read-out: IC50 (50% inhibitory concentration for cell growth)

Cc1ccc(N(C)S(=O)(=O)c2ccccc2[N+](=O)[O-])cc1 [Compound 31, N-(2-nitrophenylsulfonyl)-N,4-dimethylaniline]
EC50 (HIV-1; [2]): 12.5 µM | inhibition at 200 µM (HIV-1; [3]): -0.58% | inhibition at 2 µM (HIV-1; [3]): 9.89% | inhibition at 0.2 µM (HIV-1; [3]): -1.72% | inhibition at 0.634 µM (HIV-1; [4]): -2.85% | inhibition at 20 µM (HIV-1; [5]): 73.6% | inhibition at 63.2 µM (HIV-1; Human immunodeficiency virus 1, CCRF-CEM, read-out: Percent of Protection, dose 6.32 × 10^-5 Molar): 18.4% | inhibition at 6.33 µM (HIV-1; [6]): 22% | inhibition at 0.0635 µM (HIV-1; [7]): -3.51% | activity at 2 µM (HIV-1; [8]): 14.4% | activity at 0.2 µM (HIV-1; [8]): 3.37% | activity at 0.634 µM (HIV-1; [9]): 2.29% | activity at 0.0635 µM (HIV-1; [10]): 1.67% | TI50 (IC/EC), Therapeutic Index (HIV-1): 31.0 × 10^0 | IC50 [1, 11]: 388 µM | activity at 200 µM [1, 12]: -0.75% | activity at 20 µM [1, 12]: 84.3% | activity at 2 µM [1, 12]: 84.1% | activity at 0.2 µM [1, 12]: 95.8% | activity at 63.2 µM [1, 12]: 24.6% | activity at 6.33 µM [1, 12]: 91.1% | activity at 0.634 µM [1, 12]: 89.9% | activity at 0.0635 µM [1, 12]: 92.9%

CNc1ccc(Cl)cc1S(=O)(=O)c1ccccc1 [Compound 57, 2-phenylsulfonyl-4-chloro-N-methylaniline]
EC50 (HIV-1; [2]): 9.84 µM | inhibition at 200 µM (HIV-1; [3]): 22% | inhibition at 20 µM (HIV-1; [13]): 94% | inhibition at 2 µM (HIV-1; [3]): 2.94% | inhibition at 0.2 µM (HIV-1; [3]): 0.57% | inhibition at 63.2 µM (HIV-1; Human immunodeficiency virus 1, CCRF-CEM, dose 6.32 × 10^-5 Molar, read-out: Percent of Protection): 91.9% | inhibition at 6.33 µM (HIV-1; Human immunodeficiency virus 1, CCRF-CEM, dose 6.33 × 10^-6 Molar, read-out: Percent of Protection): 22.9% | inhibition at 0.0635 µM (HIV-1; Human immunodeficiency virus 1, CCRF-CEM, dose 6.35 × 10^-8 Molar, read-out: Percent of Protection): -1.32% | inhibition at 0.634 µM (HIV-1; Human immunodeficiency virus 1, CCRF-CEM, read-out: Percent of Protection, dose 6.34 × 10^-7 Molar): -1.18% | activity at 200 µM (HIV-1; [8]): 27.5% | activity at 20 µM (HIV-1; [14]): 94.4% | activity at 2 µM (HIV-1; [8]): 9.73% | activity at 0.2 µM (HIV-1; [8]): 7.53% | activity at 63.2 µM (HIV-1; Human immunodeficiency virus 1, Lymphocyte, dose 6.32 × 10^-5 Molar, read-out: Percent of Control, Infected): 92.5% | activity at 6.33 µM (HIV-1; [15]): 28.3% | activity at 0.634 µM (HIV-1; [9]): 5.9% | activity at 0.0635 µM (HIV-1; [10]): 5.77% | TI50 (IC/EC), Therapeutic Index (HIV-1): > 2.03 × 10^-1 | IC50 [1, 16]: > 200 µM | activity at 200 µM [1, 12]: 75.9% | activity at 20 µM [1, 12]: 87.2% | activity at 2 µM [1, 12]: 91.5% | activity at 0.2 µM [1, 12]: 92% | activity at 63.2 µM [1, 12]: 97.2% | activity at 6.33 µM [1, 12]: 89.6% | activity at 0.634 µM [1, 12]: 86.4% | activity at 0.0635 µM [1, 12]: 91.9%

CN(c1ccccc1)S(=O)(=O)c1cccc([N+](=O)[O-])c1 [Compound 14, N-(3-nitrophenylsulfonyl)-N-methylaniline]
EC50 (HIV-1; [2]): 42.5 µM | inhibition at 200 µM (HIV-1; [3]): 5.28% | inhibition at 2 µM (HIV-1; [3]): -6.93% | inhibition at 0.2 µM (HIV-1; [3]): -10.9% | inhibition at 63.3 µM (HIV-1; Human immunodeficiency virus 1, CCRF-CEM, dose 6.33 × 10^-5 Molar, read-out: Percent of Protection): 78.3% | inhibition at 0.634 µM (HIV-1; [4]): -13.4% | inhibition at 20 µM (HIV-1; [5]): -3.74% | inhibition at 6.33 µM (HIV-1; [6]): -3.87% | inhibition at 0.0635 µM (HIV-1; [7]): -11.1% | activity at 200 µM (HIV-1; [8]): 17.6% | activity at 20 µM (HIV-1; [14]): 9.75% | activity at 2 µM (HIV-1; [8]): 6.97% | activity at 0.2 µM (HIV-1; [8]): 3.54% | activity at 63.3 µM (HIV-1; Human immunodeficiency virus 1, Lymphocyte, dose 6.33 × 10^-5 Molar, read-out: Percent of Control, Infected): 81.1% | activity at 6.33 µM (HIV-1; [15]): 16.4% | activity at 0.634 µM (HIV-1; [9]): 1.34% | activity at 0.0635 µM (HIV-1; [10]): 3.37% | TI50 (IC/EC), Therapeutic Index (HIV-1): 3.34 × 10^0 | IC50 [1, 11]: 142 µM | activity at 200 µM [1, 12]: 41.5% | activity at 20 µM [1, 12]: 83.8% | activity at 2 µM [1, 12]: 87.2% | activity at 0.2 µM [1, 12]: 93.2% | activity at 63.3 µM ([1]; dose 6.33 × 10^-5 Molar, read-out: Percent of Control, Uninfected): 70.2% | activity at 6.33 µM [1, 12]: 81.3% | activity at 0.634 µM [1, 12]: 87.8% | activity at 0.0635 µM [1, 12]: 94.8%

CNc1c(Cl)cccc1S(=O)(=O)c1ccccc1[N+](=O)[O-] [Compound 78, 2-(2-nitrophenylsulfonyl)-6-chloro-N-methylaniline]
EC50 (HIV-1; [2]): 0.22 µM | inhibition at 20 µM (HIV-1; [13]): 89.5% | inhibition at 2 µM (HIV-1; [3]): 93.9% | inhibition at 0.2 µM (HIV-1; [3]): 45.9% | inhibition at 0.02 µM (HIV-1; Human immunodeficiency virus 1, CCRF-CEM, dose 2.00 × 10^-8 Molar, read-out: Percent of Protection): 8.88% | inhibition at 6.32 µM (HIV-1; Human immunodeficiency virus 1, CCRF-CEM, dose 6.32 × 10^-6 Molar, read-out: Percent of Protection): 96% | inhibition at 0.633 µM (HIV-1; Human immunodeficiency virus 1, CCRF-CEM, dose 6.33 × 10^-7 Molar, read-out: Percent of Protection): 100% | inhibition at 0.0634 µM (HIV-1; Human immunodeficiency virus 1, CCRF-CEM, dose 6.34 × 10^-8 Molar, read-out: Percent of Protection): 12.2% | inhibition at 0.00635 µM (HIV-1; Human immunodeficiency virus 1, CCRF-CEM, dose 6.35 × 10^-9 Molar, read-out: Percent of Protection): 2.69% | activity at 20 µM (HIV-1; [14]): 89.8% | activity at 2 µM (HIV-1; [8]): 94.1% | activity at 0.2 µM (HIV-1; [8]): 47% | activity at 0.02 µM (HIV-1; Human immunodeficiency virus 1, Lymphocyte, dose 2.00 × 10^-8 Molar, read-out: Percent of Control, Infected): 10.7% | activity at 6.32 µM (HIV-1; Human immunodeficiency virus 1, Lymphocyte, dose 6.32 × 10^-6 Molar, read-out: Percent of Control, Infected): 96% | activity at 0.633 µM (HIV-1; Human immunodeficiency virus 1, Lymphocyte, dose 6.33 × 10^-7 Molar, read-out: Percent of Control, Infected): 100% | activity at 0.0634 µM (HIV-1; Human immunodeficiency virus 1, Lymphocyte, dose 6.34 × 10^-8 Molar, read-out: Percent of Control, Infected): 13.9% | activity at 0.00635 µM (HIV-1; Human immunodeficiency virus 1, Lymphocyte, dose 6.35 × 10^-9 Molar, read-out: Percent of Control, Infected): 4.64% | TI50 (IC/EC), Therapeutic Index (HIV-1): > 9.08 × 10^+1 | IC50 [1, 16]: > 20 µM | activity at 20 µM [1, 12]: 85.5% | activity at 2 µM [1, 12]: 85.6% | activity at 0.2 µM [1, 12]: 85.2% | activity at 0.02 µM ([1]; dose 2.00 × 10^-8 Molar, read-out: Percent of Control, Uninfected): 92.2% | activity at 6.32 µM ([1]; dose 6.32 × 10^-6 Molar, read-out: Percent of Control, Uninfected): 91.5% | activity at 0.633 µM ([1]; dose 6.33 × 10^-7 Molar, read-out: Percent of Control, Uninfected): 86.4% | activity at 0.0634 µM ([1]; dose 6.34 × 10^-8 Molar, read-out: Percent of Control, Uninfected): 87.4% | activity at 0.00635 µM ([1]; dose 6.35 × 10^-9 Molar, read-out: Percent of Control, Uninfected): 88.5%
